Source: PMC8570541, “Real-time observation of tetrapyrrole binding to an engineered bacterial phytochrome” (Communications Chemistry, 2021)

Columns and labels:
miRFP709 = molecular target: T1, miRFP709 (Rhodopseudomonas palustris, UniProt A0A161I5N6); assay: time-resolved absorption and stimulated Raman spectroscopy; format: binding; conditions: covalent; thioether to Cys in PAS; pH 8.0, 20 mM Tris-HCl, 150 mM NaCl, DTT
T1 construct: engineered monomeric PAS-GAF fragment derived from RpBphP1; Cys in PAS only, none in GAF; about 35 kDa; N-terminal polyhistidine tag; apoprotein expressed in E. coli LMG194 without heme oxygenase
T1 sequence (A0A161I5N6 1-314 limits assumed): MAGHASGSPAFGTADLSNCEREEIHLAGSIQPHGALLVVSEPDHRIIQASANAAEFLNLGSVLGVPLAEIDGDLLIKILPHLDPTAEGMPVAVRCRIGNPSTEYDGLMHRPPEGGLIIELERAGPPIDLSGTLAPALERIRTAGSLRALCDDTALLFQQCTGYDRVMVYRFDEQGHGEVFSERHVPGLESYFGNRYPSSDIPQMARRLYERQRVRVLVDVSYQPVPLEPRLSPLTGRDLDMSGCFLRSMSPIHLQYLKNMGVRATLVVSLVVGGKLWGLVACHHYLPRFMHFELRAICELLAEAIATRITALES
Description: time-resolved absorption and stimulated Raman spectroscopy on miRFP709 | We assign the 18-min reaction to the covalent bond formation to Cys in the PAS

miRFP670 = molecular target: T2, miRFP670 (Rhodopseudomonas palustris, UniProt A0A161I5N6, D200T/I252C, form not given); assay: time-resolved absorption and stimulated Raman spectroscopy, SDS-PAGE; format: binding; conditions: covalent; Cys253 GAF thioether, then a second thioether to Cys20 PAS; pH 8.0, 20 mM Tris-HCl, 150 mM NaCl, DTT
T2 construct: engineered monomeric PAS-GAF fragment derived from RpBphP1; Cys20 (PAS) and Cys253 (GAF); about 35 kDa; N-terminal polyhistidine tag; apoprotein expressed in E. coli LMG194 without heme oxygenase
T2 sequence (A0A161I5N6 1-314 D200T/I252C limits assumed): as the sequence (A0A161I5N6 1-314 limits assumed) above, with D200T, I252C counted along it

time constant of C-S bond formation (Cys in PAS) (miRFP709): 18 min
time constant of C-S bond formation (Cys in GAF) (miRFP670): 4.3 min
Structure (SMILES): C=CC1=C(C)C(=Cc2[nH]c(C=C3N=C(C=C4NC(=O)C(C)=C4C=C)C(C)=C3CCC(=O)O)c(CCC(=O)O)c2C)NC1=O [biliverdin]
